In patent publication US9266859B2, “Azetidinyloxyphenylpyrrolidine compounds” (Eli Lilly and Company, priority 2013, dated 2016):
pIC50: −log10 of the molar value. Where “and” joins values, the source holds several entries; their conditions need not be identical. Equal values may be shown once.

Assays:
PDE4B = molecular target: T1, PDE4B (Homo sapiens, UniProt Q07343); test: PDE4 Inhibition In Vitro Assay; assay type: biochemical; details: human recombinant PDE4B
T1 construct: made in house; host or cells: Saccharomyces cerevisiae lacking endogenous PDEs
Description: The phosphodiesterase assays are performed essentially according to the method described in Loughney, K., et al., J. Biol. Chem., 271, pp. 796-806 (1996). PDE4A, PDE4B, PDE4C, PDE4D, and PDE5 human recombinant proteins are expressed and purified from Saccharomyes cerevisiae that lack endogenous PDEs. The phosphodiesterase enzymes are diluted on ice with enzyme dilution buffer (25 mM Tris, pH 7.5, 0.1 mM DTT, 5.0 mM MgCl2, 100 mM NaCl, 5 μM ZnSO4, 100 μg/mL BSA) to give approximately 20%-40% hydrolysis of cyclic nucleotide monophosphate (cNMP) in the absence of inhibitor.
The stock solution of test compounds are diluted on the Beckman BioMek™ 1000 workstation to span a concentration range of 4.5 log units in 0.5 log increments. The DMSO concentration in the final test system is 2.5% for all PDE enzymes. The final test compound concentration tested ranged from 0.03 nM to 1 μM.
The assay is performed in a 96-well microtiter plate format on a Beckman BioMek™ 1000 robotic station. […] The amount of radioactivity released as phosphate is determined in a Wallac MicroBeta Plate™ counter.
The reduced data at each concentration of inhibitor is analyzed using a four-, three- or two-parameter logistic dose response model to provide an IC50 value.

[1] = test system: chronic cyclophosphamide (CYP)-induced overactive bladder mouse model; test: Overactive Bladder In Vivo Model (chronic cyclophosphamide-induced)
Description: The in vivo effect of PDE4 inhibitors on OAB is studied with a chronic cyclophosphamide (CYP)-induced overactive bladder mouse model adapted from Boudes et al., Neurourol. Urodynam. 2011. In a typical study, female C57/Bl6 mice, approximately 20 grams in body weight (Harlan Laboratories, Inc., Indianapolis, Ind.) are used. Mice are randomized by body weight into groups one day before the start of the study. Mice are individually housed and maintained on a 12 hour light/dark cycle at 22° C. with ad lib access to food (TD 2014 with 0.72% Ca and 0.61% P, 990 IU/g D3, Teklad™, Madison, Wis.) and water. Animals receive cyclophosphamide (dissolved in physiological saline) i.p. administration at 100 mg/kg on days 1, 3, 5, and 7 to chronically induce OAB. The vehicle control group received daily vehicle (HEC 1%/Tween 80 0.25%/Antifoam 0.05%) administered orally. All other groups are administered orally tadalafil at 10 mg/kg in combination with 0.1, 1.0, or 10.0 mg/kg of test compound daily at a volume of 200 μl/mouse. On day 8, mice are housed in urine collection chambers with a filter paper placed underneath chamber. Prior to urine collection, gavages of 1 ml water are given to each mouse. Urine is collected from 6 pm to 10 pm (i.e. for 4 hrs). Gel cups (DietGel™76A) are supplied as water source during the 4 hour period. The filter paper is changed every hour. Voiding frequency and volume/void are calculated using Image J software (NIH). Data are statistically analyzed with JMP8® software (Cary, N.C.).
All treatment groups receive a fixed dose of 10 mg/kg of tadalafil.

[2] = Example 2 0.1, 1.0, 10.0 mg/kg given with tadalafil 10 mg/kg

T1 sequence (Q07343 whole entry): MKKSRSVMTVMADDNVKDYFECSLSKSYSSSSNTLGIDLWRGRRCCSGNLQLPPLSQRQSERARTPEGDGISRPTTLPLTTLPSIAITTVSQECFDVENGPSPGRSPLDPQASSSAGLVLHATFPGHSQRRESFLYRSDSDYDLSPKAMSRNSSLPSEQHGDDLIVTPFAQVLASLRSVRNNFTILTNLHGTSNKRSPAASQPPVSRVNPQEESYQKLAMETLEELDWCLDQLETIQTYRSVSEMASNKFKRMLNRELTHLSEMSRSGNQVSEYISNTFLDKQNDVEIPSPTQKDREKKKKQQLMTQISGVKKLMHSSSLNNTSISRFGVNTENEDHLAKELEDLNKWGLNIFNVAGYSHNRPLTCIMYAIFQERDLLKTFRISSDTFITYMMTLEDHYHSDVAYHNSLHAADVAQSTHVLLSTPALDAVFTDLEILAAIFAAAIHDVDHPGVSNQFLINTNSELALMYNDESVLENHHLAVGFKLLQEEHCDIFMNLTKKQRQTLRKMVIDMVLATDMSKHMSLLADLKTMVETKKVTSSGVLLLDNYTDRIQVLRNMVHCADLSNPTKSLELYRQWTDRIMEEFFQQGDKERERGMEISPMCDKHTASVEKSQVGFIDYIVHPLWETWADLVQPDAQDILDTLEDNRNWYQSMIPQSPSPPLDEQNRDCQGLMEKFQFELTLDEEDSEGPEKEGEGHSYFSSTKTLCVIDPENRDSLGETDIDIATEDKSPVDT

SMILES	pIC50 (PDE4B)	Mean Voiding Frequency ([1]; Example 2 0.1 mg/kg + tadalafil 10 mg/kg, oral daily, day 8, CYP-treated female C57/Bl6 mice, vehicle 16.5) [no./4 hr]	effect on urinary frequency (in words) [1, 2]	effect on volume/void (in words) [1, 2]
COc1ccc([C@@H]2CN(C(=O)[C@@H](O)CO)C[C@@]2(C)[C@@H](C)O)cc1OC1CN(c2ccccn2)C1 [Example 1, (2S)-3-[(3S,4S)-3-[(1R)-1-hydroxyethyl]-4-{4-methoxy-3-[(1-pyridin-2-ylazetidin-3-yl)oxy]phenyl}-3-methylpyrrolidin-1-yl]-3-oxopropane-1,2-diol]	> 8.00	–	–	–
COc1ccc([C@@H]2CN(C(=O)[C@@H](O)CO)C[C@@]2(C)[C@@H](C)O)cc1OC1CN(c2ccc(C)cn2)C1 [Example 2, (2S)-3-[(3S,4S)-3-[(1R)-1-hydroxyethyl]-4-(4-methoxy-3-{[1-(5-methylpyridin-2-yl)azetidin-3-yl]oxy}phenyl)-3-methylpyrrolidin-1-yl]-3-oxopropane-1,2-diol]	> 8.00 and 9.24	10	significantly reduces urinary frequency in a dose-dependent fashion	increases of volume/void are also observed in a dose-dependent fashion
